From US8288435B2, “2-aza-bicyclo[3.1.0]hexane derivatives as orexin receptor antagonists” (Actelion Pharmaceuticals Ltd., priority 2006, dated 2012)

Columns and labels:
[1] = molecular target: T1, human orexin-2 receptor (Homo sapiens, UniProt O43614); experiment: Intracellular calcium measurements (FLIPR), orexin receptor antagonistic activity, OX2; format: cell-based; conditions: CHO cells expressing the human orexin-2 receptor, 10 nM orexin-A as agonist
T1 construct: expressed in transfected cells; host or cells: CHO (Chinese hamster ovary) cells, G418 selection
T1 sequence (O43614 1-444): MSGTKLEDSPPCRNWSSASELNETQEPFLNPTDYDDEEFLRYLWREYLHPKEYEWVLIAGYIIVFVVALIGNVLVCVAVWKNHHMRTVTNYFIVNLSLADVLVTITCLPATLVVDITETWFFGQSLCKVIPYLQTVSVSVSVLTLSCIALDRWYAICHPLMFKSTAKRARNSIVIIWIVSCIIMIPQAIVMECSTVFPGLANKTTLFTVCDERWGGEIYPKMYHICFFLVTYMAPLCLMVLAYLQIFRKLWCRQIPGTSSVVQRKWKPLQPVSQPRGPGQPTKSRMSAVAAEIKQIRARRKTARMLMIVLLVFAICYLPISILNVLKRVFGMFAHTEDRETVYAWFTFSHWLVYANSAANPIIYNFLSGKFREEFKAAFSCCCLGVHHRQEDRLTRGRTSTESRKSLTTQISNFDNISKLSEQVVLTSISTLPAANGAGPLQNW
Description: (§1) The orexin receptor antagonistic activity of the compounds of formula (I) is determined in accordance with the following experimental method.
(§2) Intracellular Calcium Measurements:
(§3) Chinese hamster ovary (CHO) cells expressing the human orexin-1 receptor and the human orexin-2 receptor, respectively, are grown in culture medium (Ham F-12 with L-Glutamine) containing 300 μg/ml G418, 100 U/ml penicillin, 100 μg/ml streptomycin and 10% inactivated fetal calf serum (FCS). The cells are seeded at 80′000 cells/well into 96-well black clear bottom sterile plates (Costar) which have been precoated with 1% gelatine in Hanks' Balanced Salt Solution (HBSS). All reagents are from Gibco BRL. The seeded plates are incubated overnight at 37° C. in 5% CO2.
(§4) Human orexin-A as an agonist is prepared as 1 mM stock solution in MeOH:water (1:1), diluted in HBSS containing 0.1% bovine serum albumin (BSA) and 2 mM HEPES for use in the assay at a final concentration of 10 nM.
(§5) Antagonists are prepared as 10 mM stock solution in DMSO, then diluted in 96-well plates, first in DMSO, then in HBSS containing 0.1% bovine serum albumin (BSA) and 2 mM HEPES.
(§6) On the day of the assay, 100 μl of loading medium (HBSS containing 1% FCS, 2 mM HEPES, 5 mM probenecid (Sigma) and 3 μM of the fluorescent calcium indicator fluo-3 AM (1 mM stock solution in DMSO with 10% pluronic acid) (Molecular Probes) is added to each well.
(§7) The 96-well plates are incubated for 60 min at 37° C. in 5% CO2. The loading solution is then aspirated and cells are washed 3 times with 200 μl HBSS containing 2.5 mM probenecid, 0.1% BSA, 2 mM HEPES. 100 μl of that same buffer is left in each well.
(§8) Within the Fluorescent Imaging Plate Reader (FLIPR, Molecular Devices), antagonists are added to the plate in a volume of 50 μl, incubated for 20 min and finally 100 μl of agonist is added. Fluorescence is measured for each well at 1 second intervals, and the height of each fluorescence peak is compared to the height of the fluorescence peak induced by 10 nM orexin-A with buffer in place of antagonist. For each antagonist, IC50 value (the concentration of compound needed to inhibit 50% of the agonistic response) is determined.

[2] = molecular target: T2, human orexin-1 receptor (Homo sapiens, UniProt O43613); experiment: Intracellular calcium measurements (FLIPR), orexin receptor antagonistic activity, OX1; format: cell-based; conditions: CHO cells expressing the human orexin-1 receptor, 10 nM orexin-A as agonist
T2 construct: expressed in transfected cells; host or cells: CHO (Chinese hamster ovary) cells, G418 selection
T2 sequence (O43613 1-425): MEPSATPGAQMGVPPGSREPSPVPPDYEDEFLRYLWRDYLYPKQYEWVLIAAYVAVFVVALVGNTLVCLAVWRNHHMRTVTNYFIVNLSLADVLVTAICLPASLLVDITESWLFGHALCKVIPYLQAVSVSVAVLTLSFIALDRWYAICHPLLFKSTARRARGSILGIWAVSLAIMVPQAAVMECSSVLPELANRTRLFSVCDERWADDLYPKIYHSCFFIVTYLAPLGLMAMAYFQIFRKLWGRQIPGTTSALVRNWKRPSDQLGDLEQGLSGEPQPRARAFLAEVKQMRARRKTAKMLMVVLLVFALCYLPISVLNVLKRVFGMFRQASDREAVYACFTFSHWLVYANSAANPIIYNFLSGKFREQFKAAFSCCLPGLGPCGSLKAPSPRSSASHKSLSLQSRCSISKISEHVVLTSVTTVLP
Description: as §1, §2, §3, §4, §5, §6, §7, §8

Row | Structure (SMILES) | IC50 [1] [µM] | IC50 [2] [µM]
1 | O=C(NC[C@@H]1C[C@@H]2C[C@@H]2N1C(=O)c1ccccc1-c1cccc(Cl)c1)c1cccc2occc12 [Example 8, benzofuran-4-carboxylic acid [(1S,3S,5S)-2-(3′-chloro-biphenyl-2-carbonyl)-2-aza-bicyclo[3.1.0]hex-3-ylmethyl]-amide] | 0.078 | 0.045
2 | Cc1cccc(-c2sc(C)nc2C(=O)N2[C@H](CNC(=O)c3c(C)nc4sccn34)C[C@@H]3C[C@@H]32)c1 [Example 11, 6-methyl-imidazo[2,1-b]thiazole-5-carboxylic acid [(1S,3S,5S)-2-(2-methyl-5-m-tolyl-thiazole-4-carbonyl)-2-aza-bicyclo[3.1.0]hex-3-ylmethyl]-amide] | 0.024 | 0.007
3 | Cc1nc2sccn2c1C(=O)NC[C@@H]1C[C@@H]2C[C@@H]2N1C(=O)c1ccccc1-c1cccc(Cl)c1 [Example 17, 6-methyl-imidazo[2,1-b]thiazole-5-carboxylic acid [(1S,3S,5S)-2-(3′-chloro-biphenyl-2-carbonyl)-2-aza-bicyclo[3.1.0]hex-3-ylmethyl]-amide] | 0.06 | 0.015
4 | Nc1nc(C(=O)N2[C@H](CNC(=O)c3cccc4c3OCCO4)C[C@@H]3C[C@@H]32)c(-c2cccc(F)c2)s1 [Example 25, 2,3-dihydro-benzo[1,4]dioxine-5-carboxylic acid {(1S,3S,5S)-2-[2-amino-5-(3-fluoro-phenyl)-thiazole-4-carbonyl]-2-aza-bicyclo[3.1.0]hex-3-ylmethyl}-amide] | 0.014 | 0.08
5 | Cc1cccc(-c2sc(N)nc2C(=O)N2[C@H](CNC(=O)c3c(C)noc3C)C[C@@H]3C[C@@H]32)c1 [Example 33, 3,5-dimethyl-isoxazole-4-carboxylic acid [(1S,3S,5S)-2-(2-amino-5-m-tolyl-thiazole-4-carbonyl)-2-aza-bicyclo[3.1.0]hex-3-ylmethyl]-amide] | 0.094 | 0.129
6 | Cc1nc(C(=O)N2[C@H](CNC(=O)c3nccc4ccccc34)C[C@@H]3C[C@@H]32)c(-c2cccc(F)c2)s1 [Example 38, isoquinoline-1-carboxylic acid {(1S,3S,5S)-2-[5-(3-fluoro-phenyl)-2-methyl-thiazole-4-carbonyl]-2-aza-bicyclo[3.1.0]hex-3-ylmethyl}-amide] | 0.358 | 0.104
7 | Nc1nc(C(=O)N2[C@H](CNC(=O)c3cnc4sccn34)C[C@@H]3C[C@@H]32)c(-c2cccc(F)c2)s1 [Example 57, imidazo[2,1-b]thiazole-5-carboxylic acid {(1S,3S,5S)-2-[2-amino-5-(3-fluoro-phenyl)-thiazole-4-carbonyl]-2-aza-bicyclo[3.1.0]hex-3-ylmethyl}-amide] | 0.011 | 0.012
8 | Cc1cccc(-c2sc(C)nc2C(=O)N2[C@H](CNC(=O)c3ccc4ccccc4n3)C[C@@H]3C[C@@H]32)c1 [Example 93, Quinoline-2-carboxylic acid [(1S,3S,5S)-2-(2-methyl-5-m-tolyl-thiazole-4-carbonyl)-2-aza-bicyclo[3.1.0]hex-3-ylmethyl]-amide] | 0.04 | 0.014
9 | CCn1cc(C(=O)NC[C@@H]2C[C@@H]3C[C@@H]3N2C(=O)c2nc(C)sc2-c2cccc(C)c2)c(C)n1 [Example 99, 1-Ethyl-3-methyl-1H-pyrazole-4-carboxylic acid [(1S,3S,5S)-2-(2-methyl-5-m-tolyl-thiazole-4-carbonyl)-2-aza-bicyclo[3.1.0]hex-3-ylmethyl]-amide] | 0.015 | 0.042
10 | Cc1cccc(-c2sc(C)nc2C(=O)N2[C@H](CNC(=O)c3cccc(C(F)(F)F)c3)C[C@@H]3C[C@@H]32)c1 [Example 101, N-[(1S,3S,5S)-2-(2-Methyl-5-m-tolyl-thiazole-4-carbonyl)-2-aza-bicyclo[3.1.0]hex-3-ylmethyl]-3-trifluoromethyl-benzamide] | 0.057 | 0.042
